Results from patent US20230416262A1, “TRPML MODULATORS” (Casma Therapeutics, Inc., priority 2020, published 2023).

Tests used:
TFEB = TFEB nuclear translocation assay; assay type: cell-based; conditions: Homo sapiens; HeLa wt or HeLa TRPML1 KO cells, treated for 2 hrs; ratio of nuclear to ring-region TFEB intensity
How it was run: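 HeLa wild-type or TRPML1 KO cells treated 2 h with compound at 37 °C, PFA-fixed, immunostained for TFEB (Alexa 488) with Hoechst nuclei. Imaged at ×20, four fields/well. Value is ratio of nuclear to perinuclear-ring TFEB intensity, with nuclei counts.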

THP-1 cells = assay: Lamp1 lysosomal exocytosis assay; assay type: cell-based; conditions: Homo sapiens, 55 min, 55 min incubation, top dose 20 μM
How it was run: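 THP-1 cells (1e5/well) exposed to a 7-point 3-fold compound series, top final 20 μM, for 55 min at 37°C. Surface Lamp1 then stained with Lamp1-PE on ice in buffer containing 80 μM Dynasore, and read by flow cytometry as PE geometric mean on live, sytox-negative singlets.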

Compound | EC50 (TFEB) [nM] | EC50 (THP-1 cells) [nM]
O=S(=O)(c1ccc(C(F)F)cc1)N1CC2(CCN(Cc3cnccn3)CC2)c2ccccc21 [Compound I-163, 1-[4-(difluoromethyl)benzenesulfonyl]-1′-[(pyrazin-2-yl)methyl]-1,2-dihydrospiro[indole-3,4′-piperidine]] | ≤ 2000 | ≥ 5010
CN(C)S(=N)(=O)c1ccc(S(=O)(=O)N2CC3(CCCCC3)c3ccccc32)cc1 (centres unmarked) [Compound I-129, N,N-dimethyl-4-(spiro[cyclohexane-1,3′-indolin]-1′-ylsulfonyl)benzenesulfonimidamide] | ≤ 2000 | 510 to 1000
O=C(OCc1ccccc1)N1CCC2(CC1)CN(S(=O)(=O)Cc1ccccc1)c1ccccc12 [Compound I-80, benzyl 1-(benzylsulfonyl)spiro[indoline-3,4′-piperidine]-1′-carboxylate] | ≤ 2000 | ≥ 5010
O=S(=O)(c1ccc(C(F)F)cc1)N1CC2(CCN(Cc3ccccc3)CC2)c2ccccc21 [Compound I-168, 1′-benzyl-1-[4-(difluoromethyl)benzenesulfonyl]-1,2-dihydrospiro[indole-3,4′-piperidine]] | ≤ 2000 | ≥ 5010
CN(C)S(=O)(=O)c1ccc(S(=O)(=O)N2CCC3(CCN(CC(F)(F)F)CC3)c3ccccc32)cc1 [Compound I-126, N,N-dimethyl-4-((1-(2,2,2-trifluoroethyl)-2′,3′-dihydro-1′H-spiro[piperidine-4,4′-quinolin]-1′-yl)sulfonyl)benzenesulfonamide] | ≤ 2000 | ≥ 5010
O=S(=O)(c1ccc(C(F)F)cc1)N1CC2(CCN(Cc3ccncc3)CC2)c2ccccc21 [Compound I-166, 1-[4-(difluoromethyl)benzenesulfonyl]-1′-[(pyridin-4-yl)methyl]-1,2-dihydrospiro[indole-3,4′-piperidine]] | ≤ 2000 | ≥ 5010
CC1(C)Cc2cc(S(=O)(=O)N3CC4(CCN(C(=O)OCc5ccccc5)CC4)c4ccccc43)ccc2O1 [Compound I-189, benzyl 1-((2,2-dimethyl-2,3-dihydrobenzofuran-5-yl)sulfonyl)spiro[indoline-3,4′-piperidine]-1′-carboxylate] | ≤ 2000 | ≤ 500
Cc1cnc2c(c1)N(S(=O)(=O)c1ccc(S(=N)(=O)N(C)C)cc1)CC21CCCCC1 (centres unmarked) [Compound I-157, N,N-dimethyl-4-({6′-methyl-1′,2′-dihydrospiro[cyclohexane-1,3′-pyrrolo[3,2-b]pyridin]-1′-yl}sulfonyl)benzene-1-sulfonoimidamide] | ≤ 2000 | ≥ 5010
CN(C(=O)C1CCC2(CC1)CN(S(=O)(=O)c1ccc(C(F)F)cc1)c1ccccc12)c1ccccc1 (centres unmarked) [Compound I-234, 1′-((4-(difluoromethyl)phenyl)sulfonyl)-N-methyl-N-phenylspiro[cyclohexane-1,3′-indoline]-4-carboxamide] | ≤ 2000 | ≥ 5010
CN(C)S(=O)(=O)c1ccc(S(=O)(=O)N2CC3(CCN(CC(C)(F)F)CC3)c3ccccc32)cc1 [Compound I-97, 4-{[1′-(2,2-difluoropropyl)-1,2-dihydrospiro[indole-3,4′-piperidin]-1-yl]sulfonyl}-N,N-dimethylbenzene-1-sulfonamide] | ≤ 2000 | 510 to 1000
CC1(C)COc2ccc(S(=O)(=O)N3CC4(CCCCC4)c4ccccc43)cc21 [Compound I-94, 1′-[(3,3-dimethyl-2,3-dihydro-1-benzofuran-5-yl)sulfonyl]-1′,2′-dihydrospiro[cyclohexane-1,3′-indole]] | ≤ 2000 | ≥ 5010
O=C(OCc1ccccc1)N1CCC2(CC1)CN(S(=O)(=O)c1ccc(C(F)F)cc1)c1cc(F)ccc12 [Compound I-131, benzyl 1-((4-(difluoromethyl)phenyl)sulfonyl)-6-fluorospiro[indoline-3,4′-piperidine]-1′-carboxylate] | ≤ 2000 | ≥ 5010
O=C(Nc1ccc2c(c1)OCCO2)N1CCC2(CC1)CN(S(=O)(=O)c1ccc(C(F)F)cc1)c1ccccc12 [Compound I-225, 1-((4-(difluoromethyl)phenyl)sulfonyl)-N-(2,3-dihydrobenzo[b][1,4]dioxin-6-yl)spiro[indoline-3,4′-piperidine]-1′-carboxamide] | ≥ 10000 | ≥ 5010
CN(Cc1ccccc1)C(=O)N1CCC2(CC1)CN(S(=O)(=O)c1ccc(C(F)F)cc1)c1ccccc12 [Compound I-178, N-benzyl-1-((4-(difluoromethyl)phenyl)sulfonyl)-N-methylspiro[indoline-3,4′-piperidine]-1′-carboxamide] | 2010 to 8000 | 510 to 1000
O=C(OCc1ccccc1)N1CCC2(CC1)CN(S(=O)(=O)Cc1ccc(C(F)F)cc1)c1ccccc12 [Compound I-250, benzyl 1-((4-(difluoromethyl)benzyl)sulfonyl)spiro[indoline-3,4′-piperidine]-1′-carboxylate] | ≤ 2000 | ≤ 500
CN(C)S(=O)(=O)c1ccc(S(=O)(=O)N2CC3(CCCC3)Oc3ccccc32)cc1 [Compound I-116, 4-((3,4-dihydrospiro[1,4-benzoxazine-2,1′-cyclopentan]-4-yl}sulfonyl)-N,N-dimethylbenzene-1-sulfonamide] | ≤ 2000 | ≥ 5010
CC1(C)Oc2ccc(S(=O)(=O)N3CC4(CCCC4)c4ccccc43)cc2O1 [Compound I-57, 1′-[(2,2-dimethyl-2H-1,3-benzodioxol-5-yl)sulfony1]-1′,2′-dihydrospiro[cyclopentane-1,3′-indole]] | 2010 to 8000 | ≥ 5010
CN(C(=O)N1CC2(CCN(C(=O)OCc3ccccc3)CC2)c2ccccc21)c1ccc(C(F)F)cc1 [Compound I-248, benzyl 1-((4-(difluoromethyl)phenyl)(methyl)carbamoyl)spiro[indoline-3,4′-piperidine]-1′-carboxylate] | ≥ 10000 | ≥ 5010
O=S(=O)(c1ccc(OC(F)(F)F)cc1)N1CC2(CCCC2)c2ccccc21 [Compound I-31, 1′-[4-(trifluoromethoxy)benzenesulfonyl]-1′,2′-dihydrospiro[cyclopentane-1,3′-indole]] | 2010 to 8000 | ≥ 5010
O=C(c1ccccc1)N1CCC2(CC1)CN(S(=O)(=O)c1ccc(C(F)F)cc1)c1ccccc12 [Compound I-161, 1′-benzoyl-1-[4-(difluoromethyl)benzenesulfonyl]-1,2-dihydrospiro[indole-3,4′-piperidine]] | 2010 to 8000 | 1010 to 5000
O=C(Nc1ccccc1)C1CCC2(CC1)CN(S(=O)(=O)c1ccc(C(F)F)cc1)c1ccccc12 (centres unmarked) [Compound I-230, 1′-((4-(difluoromethyl)phenyl)sulfonyl)-N-phenylspiro[cyclohexane-1,3′-indoline]-4-carboxamide] | ≤ 2000 | ≥ 5010
O=C(NC1COc2ccccc2C1)N1CCC2(CC1)CN(S(=O)(=O)c1ccc(C(F)F)cc1)c1ccccc12 (centres unmarked) [Compound I-222, N-(chroman-3-yl)-1-((4-(difluoromethyl)phenyl)sulfonyl)spiro[indoline-3,4′-piperidine]-1′-carboxamide] | ≤ 2000 | ≥ 5010

Further lines, results first:

EC50 (TFEB) [nM] | EC50 (THP-1 cells) [nM] | Compound
2010 to 8000 | ≥ 5010 | O=S(=O)(c1ccc(C2CC2(F)F)cc1)N1CC2(CCCC2)c2ccccc21 (centres unmarked) [Compound I-48, 1′-[4-(2,2-difluorocyclopropyl)benzenesulfonyl]-1′,2′-dihydrospiro[cyclopentane-1,3′-indole]]
≤ 2000 | ≤ 500 | O=C(OCc1ccccc1)N1CCC2(CC1)CN(S(=O)(=O)c1ccc(S(=O)(=O)C(F)F)cc1)c1ccccc12 [Compound I-186, benzyl 1-((4-((difluoromethyl)sulfonyl)phenyl)sulfonyl)spiro[indoline-3,4′-piperidine]-1′-carboxylate]
≤ 2000 | ≥ 5010 | O=C(OCc1ccccc1)N1CCC2(CC1)CN(S(=O)(=O)c1ccc(C(F)F)cc1)c1ccc(F)cc12 [Compound I-132]
2010 to 8000 | ≥ 5010 | O=S(=O)(c1ccc2c(c1)CCC(C(F)F)O2)N1CC2(CCCC2)c2ccccc21 (centres unmarked) [Compound I-35, 1′-{[2-(difluoromethyl)-3,4-dihydro-2H-1-benzopyran-6-yl]sulfonyl}-1′,2′-dihydrospiro[cyclopentane-1,3′-indole]]
≤ 2000 | ≤ 500 | CCOC[C@]1(C)CC[C@]2(CC1)CN(S(=O)(=O)c1ccc(C(F)F)cc1)c1ccccc12 [Compound I-137, (1r,4r)-1′-[4-(difluoromethyl)benzenesulfonyl]-4-(ethoxymethyl)-4-methyl-1′,2′-dihydrospiro[cyclohexane-1,3′-indole]]
≤ 2000 | ≤ 500 | CC(C)S(=O)(=O)c1ccc(S(=O)(=O)N2CC3(CCN(C(=O)OCc4ccccc4)CC3)c3ccccc32)cc1 [Compound I-181, benzyl 1-[4-(propane-2-sulfonyl)benzenesulfonyl]-1,2-dihydrospiro[indole-3,4′-piperidine]-1′-carboxylate]
≤ 2000 | ≤ 500 | Cc1ccc2c(c1)N(S(=O)(=O)c1ccc(S(=N)(=O)N(C)C)cc1)CC21CCCCC1 (centres unmarked) [Compound I-149, N,N-dimethyl-4-({6′-methyl-1′,2′-dihydrospiro[cyclohexane-1,3′-indol]-1′-yl}sulfonyl)benzene-1-sulfonoimidamide]
≤ 2000 | ≤ 500 | CS(=O)(=O)c1ccc(S(=O)(=O)N2CC3(CCN(C(=O)OCc4ccccc4)CC3)c3ccccc32)cc1 [Compound I-180]
≤ 2000 | ≥ 5010 | COc1cccc(NC(=O)N2CCC3(CC2)CN(S(=O)(=O)c2ccc(C(F)F)cc2)c2ccccc23)c1OC [Compound I-228, 1-((4-(difluoromethyl)phenyl)sulfonyl)-N-(2,3-dimethoxyphenyl)spiro[indoline-3,4′-piperidine]-1′-carboxamide]
